# Experimental data published in the supplement of paper PMC10307832.
# Key:
# Assay in all cases: relative viability (nuclei count vs DMSO), 5 days (fraction); higher = more cells survive
# RAF265 + Decitabine = compound: Cn1c(Nc2ccc(C(F)(F)F)cc2)nc2cc(Oc3ccnc(-c4ncc(C(F)(F)F)[nH]4)c3)ccc21 [RAF265] + Nc1ncn([C@H]2C[C@H](O)[C@@H](CO)O2)c(=O)n1 [Decitabine] (partner 2 µM)
# In short: (§1)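 Cells from lung cancer lines were seeded into 1536-well plates and, one day later, dosed by pin tool. Treatments were either a single drug or a fixed dose of an anchor drug with five library-drug doses (not always all listed) in √10 steps. After 5 days, nuclei were stained in a one-step fixation (final 0.05% Triton X-100, 1% formaldehyde, 1 ug/ml Hoechst) and counted on 4× images, and relative viability is the treated-to-vehicle nuclei ratio, as the median of duplicate plates.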
# Doramapimod + Navitoclax = compound: Cc1ccc(-n2nc(C(C)(C)C)cc2NC(=O)Nc2ccc(OCCN3CCOCC3)c3ccccc23)cc1 [Doramapimod] + CC1(C)CCC(c2ccc(Cl)cc2)=C(CN2CCN(c3ccc(C(=O)NS(=O)(=O)c4ccc(N[C@H](CCN5CCOCC5)CSc5ccccc5)c(S(=O)(=O)C(F)(F)F)c4)cc3)CC2)C1 [Navitoclax] (partner 0.5 µM)
# In short: as §1
# RAF265 + AZD7762 = compound: Cn1c(Nc2ccc(C(F)(F)F)cc2)nc2cc(Oc3ccnc(-c4ncc(C(F)(F)F)[nH]4)c3)ccc21 [RAF265] + NC(=O)Nc1cc(-c2cccc(F)c2)sc1C(=O)N[C@H]1CCCNC1 [AZD7762] (partner 0.2 µM)
# In short: as §1
# RAF265 + Vorinostat = compound: Cn1c(Nc2ccc(C(F)(F)F)cc2)nc2cc(Oc3ccnc(-c4ncc(C(F)(F)F)[nH]4)c3)ccc21 [RAF265] + O=C(CCCCCCC(=O)Nc1ccccc1)NO [Vorinostat] (partner 1 µM)
# In short: as §1
cell line,measurement,setting,value
NCI-H2170,relative viability,RAF265 + Decitabine; first compound 0.01 µM,0.482
same,relative viability,RAF265 + Decitabine; first compound 0.03162 µM,0.439
same,relative viability,RAF265 + Decitabine; first compound 0.1 µM,0.499
same,relative viability,RAF265 + Decitabine; first compound 0.3162 µM,0.366
same,relative viability,RAF265 + Decitabine; first compound 1 µM,0.386
same,relative viability,Doramapimod + Navitoclax; first compound 0.02 µM,0.512
same,relative viability,Doramapimod + Navitoclax; first compound 0.06325 µM,0.495
same,relative viability,Doramapimod + Navitoclax; first compound 0.2 µM,0.539
same,relative viability,Doramapimod + Navitoclax; first compound 0.6325 µM,0.601
same,relative viability,Doramapimod + Navitoclax; first compound 2 µM,0.478
same,relative viability,RAF265 + AZD7762; first compound 0.01 µM,0.876
same,relative viability,RAF265 + AZD7762; first compound 0.03162 µM,0.72
same,relative viability,RAF265 + AZD7762; first compound 0.1 µM,0.761
same,relative viability,RAF265 + AZD7762; first compound 0.3162 µM,0.363
same,relative viability,RAF265 + AZD7762; first compound 1 µM,0.615
same,relative viability,RAF265 + Vorinostat; first compound 0.01 µM,0.859
same,relative viability,RAF265 + Vorinostat; first compound 0.03162 µM,0.859
same,relative viability,RAF265 + Vorinostat; first compound 0.1 µM,0.761
same,relative viability,RAF265 + Vorinostat; first compound 0.3162 µM,0.393
same,relative viability,RAF265 + Vorinostat; first compound 1 µM,0.521
HCC-366,relative viability,RAF265 + Decitabine; first compound 0.01 µM,0.321
same,relative viability,RAF265 + Decitabine; first compound 0.03162 µM,0.319
same,relative viability,RAF265 + Decitabine; first compound 0.1 µM,0.402
same,relative viability,RAF265 + Decitabine; first compound 0.3162 µM,0.331
same,relative viability,RAF265 + Decitabine; first compound 1 µM,0.213
same,relative viability,Doramapimod + Navitoclax; first compound 0.02 µM,1.05
same,relative viability,Doramapimod + Navitoclax; first compound 0.06325 µM,1
same,relative viability,Doramapimod + Navitoclax; first compound 0.2 µM,1.03
same,relative viability,Doramapimod + Navitoclax; first compound 0.6325 µM,0.978
same,relative viability,Doramapimod + Navitoclax; first compound 2 µM,0.901
same,relative viability,RAF265 + AZD7762; first compound 0.01 µM,0.25
same,relative viability,RAF265 + AZD7762; first compound 0.03162 µM,0.253
same,relative viability,RAF265 + AZD7762; first compound 0.1 µM,0.396
same,relative viability,RAF265 + AZD7762; first compound 0.3162 µM,0.321
same,relative viability,RAF265 + AZD7762; first compound 1 µM,0.157
same,relative viability,RAF265 + Vorinostat; first compound 0.01 µM,0.307
same,relative viability,RAF265 + Vorinostat; first compound 0.03162 µM,0.344
same,relative viability,RAF265 + Vorinostat; first compound 0.1 µM,0.252
same,relative viability,RAF265 + Vorinostat; first compound 0.3162 µM,0.205
same,relative viability,RAF265 + Vorinostat; first compound 1 µM,0.146
NCI-H2347,relative viability,RAF265 + Decitabine; first compound 0.01 µM,0.676
same,relative viability,RAF265 + Decitabine; first compound 0.03162 µM,0.561
same,relative viability,RAF265 + Decitabine; first compound 0.1 µM,0.574
same,relative viability,RAF265 + Decitabine; first compound 0.3162 µM,0.526
same,relative viability,RAF265 + Decitabine; first compound 1 µM,0.382
same,relative viability,Doramapimod + Navitoclax; first compound 0.02 µM,0.947
same,relative viability,Doramapimod + Navitoclax; first compound 0.06325 µM,0.726
same,relative viability,Doramapimod + Navitoclax; first compound 0.2 µM,0.793
same,relative viability,Doramapimod + Navitoclax; first compound 0.6325 µM,0.761
same,relative viability,Doramapimod + Navitoclax; first compound 2 µM,0.821
same,relative viability,RAF265 + AZD7762; first compound 0.01 µM,0.74
same,relative viability,RAF265 + AZD7762; first compound 0.03162 µM,0.7
same,relative viability,RAF265 + AZD7762; first compound 0.1 µM,0.832
same,relative viability,RAF265 + AZD7762; first compound 0.3162 µM,0.46
same,relative viability,RAF265 + AZD7762; first compound 1 µM,0.22
same,relative viability,RAF265 + Vorinostat; first compound 0.01 µM,0.611
same,relative viability,RAF265 + Vorinostat; first compound 0.03162 µM,0.517
same,relative viability,RAF265 + Vorinostat; first compound 0.1 µM,0.564
same,relative viability,RAF265 + Vorinostat; first compound 0.3162 µM,0.458
same,relative viability,RAF265 + Vorinostat; first compound 1 µM,0.344
COR-L 105,relative viability,RAF265 + Decitabine; first compound 0.01 µM,0.688
same,relative viability,RAF265 + Decitabine; first compound 0.03162 µM,0.773
same,relative viability,RAF265 + Decitabine; first compound 0.1 µM,0.599
same,relative viability,RAF265 + Decitabine; first compound 0.3162 µM,0.497
same,relative viability,RAF265 + Decitabine; first compound 1 µM,0.436
same,relative viability,Doramapimod + Navitoclax; first compound 0.02 µM,0.685
same,relative viability,Doramapimod + Navitoclax; first compound 0.06325 µM,0.713
same,relative viability,Doramapimod + Navitoclax; first compound 0.2 µM,0.811
same,relative viability,Doramapimod + Navitoclax; first compound 0.6325 µM,0.81
same,relative viability,Doramapimod + Navitoclax; first compound 2 µM,0.889
same,relative viability,RAF265 + Vorinostat; first compound 0.01 µM,1.03
same,relative viability,RAF265 + Vorinostat; first compound 0.03162 µM,0.896
same,relative viability,RAF265 + Vorinostat; first compound 0.1 µM,0.845
same,relative viability,RAF265 + Vorinostat; first compound 0.3162 µM,0.725
same,relative viability,RAF265 + Vorinostat; first compound 1 µM,0.495
201T,relative viability,RAF265 + Decitabine; first compound 0.01 µM,0.879
same,relative viability,RAF265 + Decitabine; first compound 0.03162 µM,0.839
same,relative viability,RAF265 + Decitabine; first compound 0.1 µM,0.864
same,relative viability,RAF265 + Decitabine; first compound 0.3162 µM,0.884
same,relative viability,RAF265 + Decitabine; first compound 1 µM,0.858
same,relative viability,Doramapimod + Navitoclax; first compound 0.02 µM,1.27
same,relative viability,Doramapimod + Navitoclax; first compound 0.06325 µM,1.24
same,relative viability,Doramapimod + Navitoclax; first compound 0.2 µM,1.2
same,relative viability,Doramapimod + Navitoclax; first compound 0.6325 µM,1.29
same,relative viability,Doramapimod + Navitoclax; first compound 2 µM,1.28
same,relative viability,RAF265 + AZD7762; first compound 0.01 µM,0.596
same,relative viability,RAF265 + AZD7762; first compound 0.03162 µM,0.578
same,relative viability,RAF265 + AZD7762; first compound 0.1 µM,0.653
same,relative viability,RAF265 + AZD7762; first compound 0.3162 µM,0.668
same,relative viability,RAF265 + AZD7762; first compound 1 µM,0.783
same,relative viability,RAF265 + Vorinostat; first compound 0.01 µM,0.975
same,relative viability,RAF265 + Vorinostat; first compound 0.03162 µM,0.966
same,relative viability,RAF265 + Vorinostat; first compound 0.1 µM,0.998
same,relative viability,RAF265 + Vorinostat; first compound 0.3162 µM,0.974
same,relative viability,RAF265 + Vorinostat; first compound 1 µM,0.994
NCI-H2126,relative viability,RAF265 + Decitabine; first compound 0.01 µM,0.607
same,relative viability,RAF265 + Decitabine; first compound 0.03162 µM,0.56
same,relative viability,RAF265 + Decitabine; first compound 0.1 µM,0.563
same,relative viability,RAF265 + Decitabine; first compound 0.3162 µM,0.573
same,relative viability,RAF265 + Decitabine; first compound 1 µM,0.412
same,relative viability,Doramapimod + Navitoclax; first compound 0.02 µM,0.791
same,relative viability,Doramapimod + Navitoclax; first compound 0.06325 µM,0.843
same,relative viability,Doramapimod + Navitoclax; first compound 0.2 µM,0.743
same,relative viability,Doramapimod + Navitoclax; first compound 0.6325 µM,0.881
same,relative viability,Doramapimod + Navitoclax; first compound 2 µM,0.738
same,relative viability,RAF265 + AZD7762; first compound 0.01 µM,1.04
same,relative viability,RAF265 + AZD7762; first compound 0.03162 µM,0.962
same,relative viability,RAF265 + AZD7762; first compound 0.1 µM,0.968
same,relative viability,RAF265 + AZD7762; first compound 0.3162 µM,0.935
same,relative viability,RAF265 + AZD7762; first compound 1 µM,0.848
same,relative viability,RAF265 + Vorinostat; first compound 0.01 µM,0.841
same,relative viability,RAF265 + Vorinostat; first compound 0.03162 µM,0.771
same,relative viability,RAF265 + Vorinostat; first compound 0.1 µM,0.733
same,relative viability,RAF265 + Vorinostat; first compound 0.3162 µM,0.673
same,relative viability,RAF265 + Vorinostat; first compound 1 µM,0.464
LC-2-ad,relative viability,RAF265 + Decitabine; first compound 0.01 µM,0.778
same,relative viability,RAF265 + Decitabine; first compound 0.03162 µM,0.814
same,relative viability,RAF265 + Decitabine; first compound 0.1 µM,0.884
same,relative viability,RAF265 + Decitabine; first compound 0.3162 µM,0.773
same,relative viability,RAF265 + Decitabine; first compound 1 µM,0.516
same,relative viability,Doramapimod + Navitoclax; first compound 0.02 µM,0.399
same,relative viability,Doramapimod + Navitoclax; first compound 0.06325 µM,0.342
same,relative viability,Doramapimod + Navitoclax; first compound 0.2 µM,0.377
same,relative viability,Doramapimod + Navitoclax; first compound 0.6325 µM,0.422
same,relative viability,Doramapimod + Navitoclax; first compound 2 µM,0.357
same,relative viability,RAF265 + AZD7762; first compound 0.01 µM,0.848
same,relative viability,RAF265 + AZD7762; first compound 0.03162 µM,0.933
same,relative viability,RAF265 + AZD7762; first compound 0.1 µM,0.914
same,relative viability,RAF265 + AZD7762; first compound 0.3162 µM,0.721
same,relative viability,RAF265 + AZD7762; first compound 1 µM,0.669
same,relative viability,RAF265 + Vorinostat; first compound 0.01 µM,0.774
same,relative viability,RAF265 + Vorinostat; first compound 0.03162 µM,0.7
same,relative viability,RAF265 + Vorinostat; first compound 0.1 µM,0.729
same,relative viability,RAF265 + Vorinostat; first compound 0.3162 µM,0.596
same,relative viability,RAF265 + Vorinostat; first compound 1 µM,0.387
NCI-H2085,relative viability,RAF265 + Decitabine; first compound 0.01 µM,0.547
same,relative viability,RAF265 + Decitabine; first compound 0.03162 µM,0.506
same,relative viability,RAF265 + Decitabine; first compound 0.1 µM,0.571
same,relative viability,RAF265 + Decitabine; first compound 0.3162 µM,0.587
same,relative viability,RAF265 + Decitabine; first compound 1 µM,0.59
same,relative viability,Doramapimod + Navitoclax; first compound 0.02 µM,1.22
same,relative viability,Doramapimod + Navitoclax; first compound 0.06325 µM,1.05
same,relative viability,Doramapimod + Navitoclax; first compound 0.2 µM,1.07
same,relative viability,Doramapimod + Navitoclax; first compound 0.6325 µM,1.3
same,relative viability,Doramapimod + Navitoclax; first compound 2 µM,1.2
same,relative viability,RAF265 + AZD7762; first compound 0.01 µM,1.06
same,relative viability,RAF265 + AZD7762; first compound 0.03162 µM,0.879
same,relative viability,RAF265 + AZD7762; first compound 0.1 µM,1.05
same,relative viability,RAF265 + AZD7762; first compound 0.3162 µM,1.1
same,relative viability,RAF265 + AZD7762; first compound 1 µM,0.857
same,relative viability,RAF265 + Vorinostat; first compound 0.01 µM,0.891
same,relative viability,RAF265 + Vorinostat; first compound 0.03162 µM,0.714
same,relative viability,RAF265 + Vorinostat; first compound 0.1 µM,0.82
same,relative viability,RAF265 + Vorinostat; first compound 0.3162 µM,0.788
same,relative viability,RAF265 + Vorinostat; first compound 1 µM,0.803
